These molecules were tested against Mitogen-activated protein kinase kinase kinase kinase 1 (Homo sapiens, UniProt Q92918) (assay: HPK1 Biochemical Enzyme Assay).
Description: HPK1 biochemical enzyme assay: HPK1 enzyme inhibition was measured using a microfluidic mobility shift assay. […] Test compounds were titrated in ten point curves (top final assay concentration 3 μM), and preincubated with enzyme/substrate mix for 30 min prior to initiation of the reaction by addition of ATP (1 mM final concentration) and substrate (1 μM final concentration; Carna Biosciences) diluted in assay buffer supplemented by MgCl2 (final assay concentration of 5 mM). Following 60 min incubation at RT, the reaction was terminated by addition of 60 μl/well termination buffer (Carna Biosciences) and signal determination using a Caliper EZ Reader (Perkin Elmer, UK).

Sequence of Mitogen-activated protein kinase kinase kinase kinase 1 (Q92918 whole entry): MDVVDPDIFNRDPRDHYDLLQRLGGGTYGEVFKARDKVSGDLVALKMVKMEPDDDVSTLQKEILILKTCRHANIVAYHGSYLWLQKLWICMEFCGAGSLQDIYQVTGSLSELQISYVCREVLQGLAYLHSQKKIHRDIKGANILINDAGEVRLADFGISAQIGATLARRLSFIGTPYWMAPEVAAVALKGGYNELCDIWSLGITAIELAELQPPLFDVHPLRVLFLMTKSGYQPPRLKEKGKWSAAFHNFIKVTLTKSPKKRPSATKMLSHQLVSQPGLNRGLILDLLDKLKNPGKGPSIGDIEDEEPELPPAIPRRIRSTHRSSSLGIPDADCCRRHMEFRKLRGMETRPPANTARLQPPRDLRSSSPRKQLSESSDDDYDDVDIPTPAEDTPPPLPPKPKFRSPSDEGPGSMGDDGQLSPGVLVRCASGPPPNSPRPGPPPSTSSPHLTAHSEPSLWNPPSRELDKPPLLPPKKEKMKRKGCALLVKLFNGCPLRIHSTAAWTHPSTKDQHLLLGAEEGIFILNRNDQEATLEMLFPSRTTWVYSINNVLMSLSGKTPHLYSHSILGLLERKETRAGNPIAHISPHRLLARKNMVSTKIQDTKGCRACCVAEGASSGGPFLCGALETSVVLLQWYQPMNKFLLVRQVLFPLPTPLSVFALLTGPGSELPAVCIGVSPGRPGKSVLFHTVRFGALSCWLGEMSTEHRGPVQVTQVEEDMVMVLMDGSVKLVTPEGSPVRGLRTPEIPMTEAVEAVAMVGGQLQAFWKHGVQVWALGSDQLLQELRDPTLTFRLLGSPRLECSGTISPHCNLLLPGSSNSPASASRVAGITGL

Row | Compound | IC50
1 | CN(C)Cc1nc(Nc2ccc(-c3cnc4ccccn34)c3c2C(=O)NC3)ccc1[C@@H]1CCOC1 [US11548890, Compound I-714] | < 100 nM
2 | CC(C)(O)[C@H]1CN(c2ccc(Nc3cnc(-c4cnc5cnccn45)c4c3C(=O)NC4)nc2)CCO1 [US11548890, Compound I-486] | < 100 nM
3 | COC1CCN(c2ccc(Nc3ccc(-c4cnc5c(F)cccn45)c4c3C(=O)NC4)nc2)CC1 [US11548890, Compound I-455] | in the range around 550 nM
4 | CC1=CC2N=CC(c3ccc(Nc4ccc(N5CCC(O)CC5)cn4)c4c3CNC4=O)=C2C=C1 (centres undefined) [US11548890, Compound I-137] | < 100 nM
